# Values joined by “and” are separate entries in the source; they are usually repeats but may differ in a detail not shown here. Equal values may be shown once. Read-outs that look alike come from different tables or passages of the source.
# Key:
# [1] = test system: WBCs; assay: Immobilization of cells: recovery rate of cells on SA (streptavidin) plate or untreated plate (Example 3); type: cell-based
# Experimental: The following applies for modular description of the compounds below: X=hydrophobic moiety, […]=fluorescein In the following experiment, the recovery rate of cells was determined.
# [2] = test system: MDAs in WBCs; assay: Immobilization of cells: recovery rate of MDAs spiked in WBCs on SA-plate (Example 3); type: cell-based
# Experimental: The following applies for modular description of the compounds below:
# X=hydrophobic moiety, Y=PEG2000, Z=Biotin-TEG, F=Fluos=fluorescein
# In the following experiment, the recovery rate of cells was determined.
# [3] = test system: WBC; assay: WBC recovery rate after centrifugation (cell stabilization, Example 5); type: cell-based; details: Centrifugation: 20 min, 500×g
# [4] = test system: white blood cells (WBCs)
# Experimental: In particular, the performance of a single cholesterol-molecule and different dual-linker molecules (i.e. containing two hydrophobic moieties) was tested. In detail, immobilization of white blood cells (WBCs) on a Streptavidin-coated surface using different linker molecules was tested on a 12-well plate: 300 000 WBCs/well. This was followed by the measurement of the cell recovery rate after immobilization and washing of the cells using the Cellavista instrument (10× Nuclei Operator s9s5).
# [5] = test system: WBC; assay: WBC recovery rate after centrifugation (cell stabilization, Example 5); type: cell-based; details: Centrifugation: 20 min, 300×g; 10 min, 1 h, 2 h incubation
# Experimental: A) WBC Recovery Rate after Centrifugation and Cell Immobilization Using Different Molecules
# Centrifugation characteristics: 10 min, 300×g.
# B) WBC Recovery Rate after Centrifugation Using Different Compounds—Different Points of Time
# Centrifugation characteristics: 10 min, 300×g. A: Choleseryl-TEG-Cholesteryl-TEG-(SpacerC18)7-Fluos-Biotin-TEG.
# C) WBC Recovery Rate after Centrifugation—Different Experimenters
# Centrifugation characteristics: 10 min, 300×g. Molecule: Cholesteryl-TEG-Cholesteryl-TEG-(SpacerC18)7-Fluos-Biotin-TEG.
# D) WBC Recovery Rate after Centrifugation—Different Points of Time and Centrifugation Settings
# Centrifugation characteristics: 20 min, 300×g.
# [6] = Sample 1, first block (concentration not given), 300 000 WBCs/well
# [7] = Sample 2, compound concentration: 100 pmol/10e6 WBCs
# [8] = Sample 2, compound concentration: 1 nmol/10e6 WBCs
substance,measurement,setting,value
5′-CholesterylTEG-CholesterylTEG-PEG2000-Fluos-BiotinTEG-3′ [29.891180],Recovery rate treated cells (SA-plate),[1]; 2.16 μg/2 × 10e6 WBCs,78.6%
same,Recovery rate treated cells (SA-plate),[1]; 21.6 μg/2 × 10e6 WBCs,68.6%
same,Recovery rate treated cells (SA-plate),[1]; 216 μg/2 × 10e6 WBCs,50.1%
same,Recovery rate treated cells (SA-plate),[1]; 5 × 10e5 WBCs (MDA spiking experiment),70.0% and 70.8%
same,Recovery rate treated cells (SA-plate),[1]; 10e6 WBCs (MDA spiking experiment),69.4%
same,Recovery rate treated cells (SA-plate),[1]; 200 μl Zellsus.,67.6% and 71.9%
same,Recovery rate treated cells (SA-plate),[1]; 400 μl Zellsus.,78.4% and 84.1%
same,Recovery rate treated cells (SA-plate),[1]; 10 min 4° C.,81.6%
same,Recovery rate treated cells (SA-plate),[1]; 10 min RT,88.3%
same,Recovery rate treated cells (SA-plate),[1]; 800 μl Zellsus.,81.1% and 86.4%
same,Recovery rate treated cells (SA-plate),[1]; 60 min 4° C.,81.7%
same,Recovery rate treated cells (SA-plate),[1]; 60 min RT,85.5%
same,Recovery rate treated cells (untreated-plate),"[1]; cells treated with compound, untreated plate",56.7%
same,Recovery rate treated cells (SA-plate),[2]; 10e4 MDAs in WBCs,99.0%
same,Recovery rate treated cells (SA-plate),[2]; 20e3 MDAs in WBCs,102.0%
same,Recovery rate treated cells (SA-plate),[2]; 40e3 MDAs in WBCs,102.0%
5′-(Cholesteryl-TEG)2-Spacer C18-Fluos-Biotin_TEG-3′ INVERS [29.891254],Recovery Rate,[1]; 10 pmol/10e6 cells,40.30%
same,Recovery Rate,[1]; 100 pmol/10e6 cells,64.60% and 57.63% and 65.69% and 70.07% and 81.28%
same,Recovery Rate,[1]; 1 nmol/10e6 cells,92.50% and 82.19% and 81.79% and 74.68%
same,Recovery Rate,[1]; 10 nmol/10e6 cells,83.60%
same,"WBC recovery rate after centrifugation, performance ranking",[3],followed by molecule 1255 and 1254
same,Recovery Rate,[4]; [6],57.63%
same,cells counted per well,[4]; [6],157660 and 190148 and 170850
same,Recovery Rate,"[4]; Sample 1, compound concentration: 1 nmol/10e6 WBCs",82.19%
same,cells counted per well,"[4]; Sample 1, compound concentration: 1 nmol/10e6 WBCs, 300 000 WBCs/well",244649 and 234262 and 260760
same,Mean (cells counted per well),[4]; [7],197067.00
same,Recovery Rate,[4]; [7],65.69%
same,cells counted per well,"[4]; Sample 2, compound concentration: 100 pmol/10e6 WBCs, 300 000 WBCs/well",205917 and 185100 and 200184
same,Mean (cells counted per well),[4]; [8],245376.00
same,Recovery Rate,[4]; [8],81.79%
same,cells counted per well,"[4]; Sample 2, compound concentration: 1 nmol/10e6 WBCs, 300 000 WBCs/well",247428 and 244396 and 244304
same,"WBC recovery rate after centrifugation, performance ranking",[5],followed by compound 1255 and 1254
